The values that follow come from patent US5480887A, “Protease inhibitors” (Eli Lilly and Company, priority 1994, dated 1996).

One assay deals with HIV. Nature of the assay: microbe, parasite or virus in culture. The format is cell-based. Particulars: XTT, 450 nm, * (n) = average of n assays, read-out: Antiviral Activity IC90. As to the method: In addition, the compounds described in the present application may be tested using an antiviral cell culture assay as described in Weislow, O.S., J. of National Cancer Institute, 81(8), pages 577-586 (Apr. 19, 1989) herein incorporated by reference.
This assay compares the viability of HIV-infected cells in a cell culture medium relative to the viability of such cells in the presence of a test compound. The concentration of test compound necessary to inhibit 90% of the virus is then measured using the viability of the cells as an indicator of viral inhibition. This assay is carried out using cell lines that are sensitive to the lyric effects of HIV infection.
Specifically, this assay utilizes the metabolic reduction of a tetrazolium reagent, 2,3-bis[2-methoxy-4-nitro-5-sulfophenyl]-5-[(phenylamino)carbonyl]-2H-tetrazolium hydroxide (XTT). In the presence of a viable cell, the tetrazolium reagent, XTT, is reduced to provide XTT formazan which may be quantified using colorimetric determination (at 450 nm). The intensity of the chromogenic signal is directly proportional to the concentration of the XTT formazan, thus providing a measure of the quantity of viable cells.
(Formazan colour is commonly taken as a measure of viable cells.)

In another assay the target is T1, HIV-1 Protease (Human immunodeficiency virus type 1 group M subtype B, UniProt P04585).
T1 construct: HIV-1 Protease
Put plainly: biochemical. Particulars: for IC50: read-out: Fluorescence Assay IC50 (converted); for inhibition at 0.00016 µg/mL: read-out: % inhibition at the stated concentration (ICx (0.16)). As to the method:
These compounds may be assayed using two assays: (1) an enzyme inhibition assay, and (2) an antiviral cell culture assay.
This assay is described in detail in published European Patent Application (EPA) 0 526 009, herein incorporated by reference. Using this assay, a number of the compounds, prepared above, were assayed for HIV protease inhibitory activity.
The assay is unable to test compounds at less than a concentration of 0.16 ng/mL.

Setting [1] is: concentration inhibiting 90% of the viral-induced toxicity.
Setting [2] is: concentration inhibiting 50% of the enzyme, * = calculated average with n number of assays.
Setting [3] is: Human immunodeficiency virus 1, concentration inhibiting 90% of the viral-induced toxicity.
The mark [4] stands for this setting: at 0.16 ng/mL, lowest testable concentration.

Where two headings read alike, the source gives them in different places.

`CC(C)(C)NC(=O)[C@@H]1C[C@@H]2SCC[C@@H]2CN1C[C@@H](O)[C@H](CSc1ccccc1)NC(=O)C[C@@H]1CCS(=O)(=O)C1` [Example 12, N-t-Butyl-octahydro-5[2R-hydroxy-3R-N(1',1'-dioxo-tetrahydrothiophen-3'R-ylmethylcarbonyl)amino-4-phenylthio-butyl]-(3aR,7aS)-thieno[3,2-c] pyridine-(6S)-carboxamide]: the IC90 (as a rule, the point of the concentration-response curve where the effect stands at 90%) in the assay on HIV (setting [1]) was 96 nM. Also, the “Fluorescence Assay IC50” value at HIV-1 Protease (setting [2]) is 0.44 ng/mL.

As to `CC(C)(C)NC(=O)[C@@H]1C[C@@H]2SCC[C@@H]2CN1C[C@@H](O)[C@H](CSc1ccccc1)NC(=O)O[C@@H]1CCS(=O)(=O)C1` [11C-11 mg sample], the IC90 with HIV (setting [3]) came out at 26 nM. For the same compound, the IC50 (commonly the point on the concentration scale where inhibition reaches its midpoint) at HIV-1 Protease (setting [2]) is 1.52 nM.

Take `CC(C)(C)NC(=O)[C@@H]1C[C@@H]2SCC[C@@H]2CN1C[C@@H](O)[C@H](Cc1ccccc1)NC(=O)[C@@H](CS(=O)(=O)c1ccc2ccccc2c1)NS(C)(=O)=O` [Example 17B, N-t-Butyl-octahydro-5[2R-hydroxy-3S-phenylmethyl-4-aza-5-oxo-6S-N(methylsulfonyl)amino-7-naphth-2-ylsulfonyl-heptyl]-(3aR,7aS)-thieno[3,2-c]pyridine-(6S)-carboxamide]: the IC90 with HIV (setting [3]) was 78 nM. The inhibition at 0.00016 µg/mL on HIV-1 Protease (setting [4]) came out at 60%.

In the case of `CC(C)(C)NC(=O)[C@@H]1C[C@@H]2SCC[C@@H]2CN1C[C@@H](O)[C@H](CSc1ccccc1)NC(=O)O[C@H]1CCS(=O)(=O)C1` [11C-6 mg sample], the concentration for an effect of 90% (IC90) in the assay with HIV (setting [3]) was found to be 29 nM. Moreover, the IC50 on HIV-1 Protease (setting [2]) is 2 nM.

Regarding `CC(C)(C)NC(=O)[C@@H]1C[C@@H]2SCC[C@@H]2CN1C[C@@H](O)[C@H](Cc1ccccc1)NC(=O)[C@@H](CS(=O)(=O)c1ccc2ccccc2c1)NC(=O)C(F)(F)F` [Example 17C, N-t-Butyl-octahydro-5[2R-hydroxy-3S-phenylmethyl-4-aza-5-oxo-6S-N(trifluoromethylcarbonyl)amino-7-naphth-2-ylsulfonyl-heptyl]-(3aR,7aS)-thieno[3,2-c]pyridine-(6S)-carboxamide], the IC90 with HIV (setting [3]) stood at 31 nM. In addition, the inhibition at 0.00016 µg/mL at HIV-1 Protease (setting [4]) came to 76%.

With `CC(C)(C)NC(=O)[C@@H]1C[C@@H]2SCC[C@@H]2CN1C[C@@H](O)[C@H](Cc1ccccc1)NC(=O)[C@@H](CS(=O)(=O)c1cccc2cccnc12)NS(C)(=O)=O` [Example 26, N-t-Butyl-octahydro-5[2R-hydroxy-3S-phenylmethyl-4-aza-5-oxo-6S-N(methylsulfonyl)amino-7-quinolin-8-ylsulfonyl-heptyl]-(3aR,7aS)-thieno[3,2-c]pyridine-(6S)-carboxamide], the IC90 in the assay on HIV (setting [3]) amounted to 225 nM. In addition, the IC50 on HIV-1 Protease was 0.389 nM.

With `C[C@@H]1OCC[C@@H]1OC(=O)N[C@@H](CSc1ccccc1)[C@H](O)CN1C[C@H]2CCS[C@H]2C[C@H]1C(=O)NC(C)(C)C` [13B-26 mg sample], the IC90 in the assay on HIV (setting [3]) stood at 90 nM. For the same compound, the inhibition at 0.00016 µg/mL on HIV-1 Protease stood at 71%.

Take `CC(C)[C@@H]1SCC[C@@H]1OC(=O)N[C@@H](CSc1ccccc1)[C@H](O)CN1C[C@H]2CCS[C@H]2C[C@H]1C(=O)NC(C)(C)C` [9B-23 mg sample]: in the assay with HIV (setting [3]), the IC90 turned out to be 604 nM. Besides, on HIV-1 Protease (setting [2]), the IC50 was 2.62 nM.

`C[C@@H]1[C@H](OC(=O)N[C@@H](CSc2ccccc2)[C@H](O)CN2C[C@H]3CCS[C@H]3C[C@H]2C(=O)NC(C)(C)C)CCS1(=O)=O` [Example 38D, N-t-Butyl-octahydro-5[2R-hydroxy-3R-N(1',1'-dioxo-2'R-methyl-tetrahydrothiophen-3'R-yloxycarbonyl)amino-4-phenylthio)-butyl]-(3aR,7aS)-thieno[3,2c] pyridine-(6S)-carboxamide methanesulfonate]: the IC90 in the assay with HIV (setting [1]) worked out at 7.1 nM. Besides, the IC50 at HIV-1 Protease was 7.28 nM.

As to `C[C@H]1OCC[C@H]1OC(=O)N[C@@H](CSc1ccccc1)[C@H](O)CN1C[C@H]2CCS[C@H]2C[C@H]1C(=O)NC(C)(C)C` [13B-17 mg sample], the IC90 with HIV (setting [3]) was 880 nM. For the same compound, at HIV-1 Protease, the IC50 is 2.72 nM.

With `CC(C)[C@H]1SCC[C@H]1OC(=O)N[C@@H](CSc1ccccc1)[C@H](O)CN1C[C@H]2CCS[C@H]2C[C@H]1C(=O)NC(C)(C)C` [9B-24 mg sample], the IC90 with HIV (setting [3]) is 78 nM. Further, the inhibition at 0.00016 µg/mL on HIV-1 Protease (setting [4]) came out at 53%.

Consider `C[C@H]1[C@H](OC(=O)N[C@@H](CSc2ccccc2)[C@H](O)CN2C[C@H]3CCS[C@H]3C[C@H]2C(=O)NC(C)(C)C)CCS1(=O)=O` [34-Fraction B], for which the IC90 with HIV (setting [3]) was 32.1 nM. Besides, the IC50 on HIV-1 Protease is 27.4 nM.
